Results reported in patent US20170190671A1, “BIS(ARYL)CATECHOL DERIVATIVES AS HERBICIDES” (E I DU PONT DE NEMOURS AND COMPANY, priority 2014, published 2017).

Legend:
Test in all cases: Test E postemergence
Type in all cases: in vivo
Conditions in all cases: scale 0 to 100
[1] = tested on: horseweed (Conyza canadensis)
Summary of the method: (§1)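 Visual ratings from 0 = no effect to 100 = complete control, scored against untreated controls after 14 to 21 days in the greenhouse. Compounds, in a non-phytotoxic solvent mix with surfactant, went onto silt loam soil right after sowing (preemergence) or onto 2–18 cm plants at the 1- to 4-leaf stage (postemergence).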

[2] = tested on: soybean (Glycine max)
Summary of the method: as §1

[3] = tested on: Brazilian crabgrass (Digitaria horizontalis)
Summary of the method: as §1

[4] = tested on: waterhemp (common waterhemp, Amaranthus rudis)
Summary of the method: as §1

[5] = tested on: wild poinsettia (Euphorbia heterophylla)
Summary of the method: as §1

[6] = tested on: sandbur (southern sandbur, Cenchrus echinatus)
Summary of the method: as §1

[7] = tested on: palmer pigweed (Amaranthus palmeri)
Summary of the method: as §1

[8] = tested on: field bindweed (Convolvulus arvensis)
Summary of the method: as §1

[9] = tested on: ragweed (common ragweed, Ambrosia elatior)
Summary of the method: as §1

[10] = tested on: Italian ryegrass (Lolium multiflorum)
Summary of the method: as §1

[11] = tested on: waterhemp_RES2 (ALS & HPPD resistant common waterhemp, Amaranthus rudis)
Summary of the method: as §1

[12] = tested on: corn (Zea mays)
Summary of the method: as §1

[13] = tested on: fall panicum (Panicum dichotomiflorum)
Summary of the method: as §1

[14] = tested on: dayflower (Virginia (VA) dayflower, Commelina virginica)
Summary of the method: as §1

[15] = tested on: kochia (Kochia scoparia)
Summary of the method: as §1

[16] = tested on: hairy beggarticks (Bidens pilosa)
Summary of the method: as §1

[17] = tested on: waterhemp_RES1 (ALS & Triazine resistant common waterhemp, Amaranthus rudis)
Summary of the method: as §1

[18] = tested on: barnyardgrass (Echinochloa crus-galli)
Summary of the method: as §1

N#Cc1cccc(Oc2ncc(Cl)cn2)c1Oc1ccc(Cl)cc1 [Compound 36]
80: Plant response rating, Waterhemp_RES2 ([11]; 62 g ai/ha)
90: Plant response rating, Waterhemp ([4]; 31 g ai/ha) | Plant response rating, Poinsettia, Wild ([5]; 125 g ai/ha) | Plant response rating, Waterhemp_RES2 ([11]; 31 g ai/ha) | Plant response rating, Waterhemp_RES2 ([11]; 125 g ai/ha) | Plant response rating, Kochia ([15]; 16 g ai/ha)
100: Plant response rating, Kochia ([15]; 62 g ai/ha) | Plant response rating, Waterhemp_RES1 ([17]; 125 g ai/ha)
60: Plant response rating, Soybean ([2]; 16 g ai/ha) | Plant response rating, Poinsettia, Wild ([5]; 31 g ai/ha) | Plant response rating, Waterhemp_RES2 ([11]; 16 g ai/ha) | Plant response rating, Dayflower, VA ([14]; 62 g ai/ha)
15: Plant response rating, Ragweed ([9]; 16 g ai/ha) | Plant response rating, Ryegrass, Italian ([10]; 31 g ai/ha) | Plant response rating, Panicum, Fall ([13]; 62 g ai/ha)
20: Plant response rating, Crabgrass, Brazil ([3]; 16 g ai/ha) | Plant response rating, Crabgrass, Brazil ([3]; 31 g ai/ha) | Plant response rating, Sandbur ([6]; 31 g ai/ha) | Plant response rating, Sandbur ([6]; 62 g ai/ha) | Plant response rating, Corn ([12]; 31 g ai/ha) | Plant response rating, Corn ([12]; 62 g ai/ha) | Plant response rating, Panicum, Fall ([13]; 16 g ai/ha) | Plant response rating, Dayflower, VA ([14]; 16 g ai/ha) | Plant response rating, Barnyardgrass ([18]; 16 g ai/ha)
30: Plant response rating, Crabgrass, Brazil ([3]; 62 g ai/ha) | Plant response rating, Crabgrass, Brazil ([3]; 125 g ai/ha) | Plant response rating, Ryegrass, Italian ([10]; 125 g ai/ha) | Plant response rating, Beggarticks ([16]; 16 g ai/ha) | Plant response rating, Beggarticks ([16]; 62 g ai/ha) | Plant response rating, Barnyardgrass ([18]; 62 g ai/ha)
40: Plant response rating, Field Bindweed ([8]; 16 g ai/ha) | Plant response rating, Beggarticks ([16]; 125 g ai/ha)
0: Plant response rating, Horseweed ([1]; 16 g ai/ha) | Plant response rating, Horseweed ([1]; 31 g ai/ha)
35: Plant response rating, Ragweed ([9]; 62 g ai/ha) | Plant response rating, Beggarticks ([16]; 31 g ai/ha)
70: Plant response rating, Soybean ([2]; 62 g ai/ha) | Plant response rating, Poinsettia, Wild ([5]; 62 g ai/ha) | Plant response rating, Dayflower, VA ([14]; 125 g ai/ha)
95: Plant response rating, Waterhemp ([4]; 16 g ai/ha) | Plant response rating, Waterhemp ([4]; 62 g ai/ha) | Plant response rating, Waterhemp ([4]; 125 g ai/ha) | Plant response rating, Kochia ([15]; 31 g ai/ha) | Plant response rating, Kochia ([15]; 125 g ai/ha) | Plant response rating, Waterhemp_RES1 ([17]; 31 g ai/ha) | Plant response rating, Waterhemp_RES1 ([17]; 62 g ai/ha)
98: Plant response rating, Waterhemp_RES1 ([17]; 16 g ai/ha)
25: Plant response rating, Sandbur ([6]; 125 g ai/ha) | Plant response rating, Ragweed ([9]; 31 g ai/ha) | Plant response rating, Corn ([12]; 125 g ai/ha) | Plant response rating, Panicum, Fall ([13]; 31 g ai/ha) | Plant response rating, Panicum, Fall ([13]; 125 g ai/ha) | Plant response rating, Barnyardgrass ([18]; 31 g ai/ha)
65: Plant response rating, Field Bindweed ([8]; 62 g ai/ha)
50: Plant response rating, Soybean ([2]; 31 g ai/ha) | Plant response rating, Soybean ([2]; 125 g ai/ha) | Plant response rating, Poinsettia, Wild ([5]; 16 g ai/ha) | Plant response rating, Field Bindweed ([8]; 31 g ai/ha) | Plant response rating, Ragweed ([9]; 125 g ai/ha) | Plant response rating, Dayflower, VA ([14]; 31 g ai/ha) | Plant response rating, Barnyardgrass ([18]; 125 g ai/ha)
10: Plant response rating, Horseweed ([1]; 125 g ai/ha) | Plant response rating, Sandbur ([6]; 16 g ai/ha) | Plant response rating, Ryegrass, Italian ([10]; 16 g ai/ha) | Plant response rating, Ryegrass, Italian ([10]; 62 g ai/ha) | Plant response rating, Corn ([12]; 16 g ai/ha)
75: Plant response rating, Pigweed, Palmer ([7]; 16 g ai/ha)
5: Plant response rating, Horseweed ([1]; 62 g ai/ha)
85: Plant response rating, Pigweed, Palmer ([7]; 31 g ai/ha) | Plant response rating, Pigweed, Palmer ([7]; 62 g ai/ha) | Plant response rating, Pigweed, Palmer ([7]; 125 g ai/ha) | Plant response rating, Field Bindweed ([8]; 125 g ai/ha)

Fc1cccc(Oc2ncc(C(F)(F)F)cn2)c1Oc1ncc(Cl)cn1 [Compound 42, 5-chloro-2-[2-fluoro-6-[[5-(trifluoromethyl)-2-pyrimidinyl]oxy]phenoxy]pyrimidine]
15: Plant response rating, Corn ([12]; 125 g ai/ha) | Plant response rating, Panicum, Fall ([13]; 31 g ai/ha)
50: Plant response rating, Soybean ([2]; 16 g ai/ha) | Plant response rating, Poinsettia, Wild ([5]; 16 g ai/ha) | Plant response rating, Field Bindweed ([8]; 31 g ai/ha) | Plant response rating, Ragweed ([9]; 62 g ai/ha) | Plant response rating, Waterhemp_RES2 ([11]; 16 g ai/ha) | Plant response rating, Dayflower, VA ([14]; 31 g ai/ha) | Plant response rating, Beggarticks ([16]; 16 g ai/ha)
20: Plant response rating, Crabgrass, Brazil ([3]; 62 g ai/ha) | Plant response rating, Ryegrass, Italian ([10]; 62 g ai/ha) | Plant response rating, Panicum, Fall ([13]; 62 g ai/ha) | Plant response rating, Barnyardgrass ([18]; 125 g ai/ha)
95: Plant response rating, Soybean ([2]; 62 g ai/ha) | Plant response rating, Soybean ([2]; 125 g ai/ha) | Plant response rating, Waterhemp ([4]; 125 g ai/ha) | Plant response rating, Pigweed, Palmer ([7]; 62 g ai/ha) | Plant response rating, Waterhemp_RES2 ([11]; 125 g ai/ha) | Plant response rating, Kochia ([15]; 62 g ai/ha) | Plant response rating, Kochia ([15]; 125 g ai/ha)
60: Plant response rating, Soybean ([2]; 31 g ai/ha) | Plant response rating, Poinsettia, Wild ([5]; 31 g ai/ha) | Plant response rating, Field Bindweed ([8]; 62 g ai/ha) | Plant response rating, Ragweed ([9]; 125 g ai/ha) | Plant response rating, Beggarticks ([16]; 31 g ai/ha) | Plant response rating, Beggarticks ([16]; 62 g ai/ha) | Plant response rating, Waterhemp_RES1 ([17]; 16 g ai/ha)
90: Plant response rating, Waterhemp ([4]; 62 g ai/ha) | Plant response rating, Waterhemp_RES1 ([17]; 125 g ai/ha)
25: Plant response rating, Ragweed ([9]; 31 g ai/ha)
30: Plant response rating, Crabgrass, Brazil ([3]; 125 g ai/ha) | Plant response rating, Panicum, Fall ([13]; 125 g ai/ha)
100: Plant response rating, Pigweed, Palmer ([7]; 125 g ai/ha)
40: Plant response rating, Field Bindweed ([8]; 16 g ai/ha) | Plant response rating, Ryegrass, Italian ([10]; 125 g ai/ha)
5: Plant response rating, Corn ([12]; 16 g ai/ha)
80: Plant response rating, Pigweed, Palmer ([7]; 16 g ai/ha) | Plant response rating, Kochia ([15]; 31 g ai/ha)
85: Plant response rating, Waterhemp ([4]; 31 g ai/ha) | Plant response rating, Pigweed, Palmer ([7]; 31 g ai/ha) | Plant response rating, Waterhemp_RES2 ([11]; 62 g ai/ha)
65: Plant response rating, Waterhemp_RES2 ([11]; 31 g ai/ha)
75: Plant response rating, Waterhemp ([4]; 16 g ai/ha) | Plant response rating, Dayflower, VA ([14]; 125 g ai/ha) | Plant response rating, Waterhemp_RES1 ([17]; 31 g ai/ha) | Plant response rating, Waterhemp_RES1 ([17]; 62 g ai/ha)
10: Plant response rating, Horseweed ([1]; 62 g ai/ha) | Plant response rating, Horseweed ([1]; 125 g ai/ha) | Plant response rating, Crabgrass, Brazil ([3]; 16 g ai/ha) | Plant response rating, Crabgrass, Brazil ([3]; 31 g ai/ha) | Plant response rating, Sandbur ([6]; 125 g ai/ha) | Plant response rating, Ragweed ([9]; 16 g ai/ha) | Plant response rating, Ryegrass, Italian ([10]; 31 g ai/ha) | Plant response rating, Corn ([12]; 31 g ai/ha) | Plant response rating, Corn ([12]; 62 g ai/ha) | Plant response rating, Panicum, Fall ([13]; 16 g ai/ha) | Plant response rating, Barnyardgrass ([18]; 62 g ai/ha)
0: Plant response rating, Horseweed ([1]; 16 g ai/ha) | Plant response rating, Horseweed ([1]; 31 g ai/ha) | Plant response rating, Sandbur ([6]; 16 g ai/ha) | Plant response rating, Sandbur ([6]; 31 g ai/ha) | Plant response rating, Sandbur ([6]; 62 g ai/ha) | Plant response rating, Ryegrass, Italian ([10]; 16 g ai/ha) | Plant response rating, Barnyardgrass ([18]; 16 g ai/ha) | Plant response rating, Barnyardgrass ([18]; 31 g ai/ha)
70: Plant response rating, Poinsettia, Wild ([5]; 62 g ai/ha) | Plant response rating, Poinsettia, Wild ([5]; 125 g ai/ha) | Plant response rating, Field Bindweed ([8]; 125 g ai/ha) | Plant response rating, Dayflower, VA ([14]; 62 g ai/ha) | Plant response rating, Kochia ([15]; 16 g ai/ha) | Plant response rating, Beggarticks ([16]; 125 g ai/ha)
35: Plant response rating, Dayflower, VA ([14]; 16 g ai/ha)
